Data taken from US10597388B2, “Pyridazinone herbicides” (FMC CORPORATION, priority 2014, dated 2020).

Experiments:
Format in all cases: in vivo
[1] = test system: barnyardgrass (Echinochloa crus-galli); assay: Test A greenhouse herbicide test, pre- and postemergence
Source text: (§1) Seeds of plant species selected from barnyardgrass (Echinochloa crus-galli), kochia (Kochia scoparia), ragweed (common ragweed, Ambrosia elatior), ryegrass, Italian (Italian ryegrass, Lolium multiflorum), crabgrass, large (large crabgrass, Digitaria sanguinalis), foxtail, giant (giant foxtail, Setaria faberii), momingglory (Ipomoea spp.), pigweed (Amaranthus retroflexus), velvetleaf (Abutilon theophrasti), wheat (Triticum aestivum), and corn (Zea mays) were planted into a blend of loam soil and sand and treated preemergence with a directed soil spray using test chemicals formulated in a non-phytotoxic solvent mixture which included a surfactant.
(§2) At the same time, plants selected from these crop and weed species and also blackgrass (Alopecurus myosuroides), and galium (catchweed bedstraw, Galium aparine) were planted in pots containing the same blend of loam soil and sand and treated with postemergence applications of test chemicals formulated in the same manner. Plants ranged in height from 2 to 10 cm and were in the one- to two-leaf stage for the postemergence treatment. Treated plants and untreated controls were maintained in a greenhouse for approximately 10 d, after which time all treated plants were compared to untreated controls and visually evaluated for injury. Plant response ratings, summarized in Table A, are based on a 0 to 100 scale where 0 is no effect and 100 is complete control. A dash (-) response means no test result.

[2] = test system: ragweed (common ragweed, Ambrosia elatior); assay: as above
Source text: as §1, §2

corn (Zea mays) = assay: as above; settings: Postemergence
Source text: as §1, §2

kochia (Kochia scoparia) = assay: as above
Source text: as §1, §2

[3] = test system: ryegrass, Italian (Italian ryegrass, Lolium multiflorum); assay: as above
Source text: as §1, §2

[4] = test system: foxtail, giant (giant foxtail, Setaria faberii); assay: as above
Source text: as §1, §2

[5] = test system: wheat (Triticum aestivum); assay: as above; settings: Postemergence
Source text: as §1, §2

[6] = test system: pigweed (Amaranthus retroflexus); assay: as above
Source text: as §1, §2

[7] = test system: barnyardgrass (Echinochloa crus-galli); assay: Test B flooded paddy test; settings: 250 g ai/ha, Flood; visual rating on scale of 0 to 100 where 0 is no effect and 100 is complete control; 13 to 15 d after treatment
Summary of the method: (§3)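 Plants at the 2-leaf stage were flooded to 3 cm above soil, and test compounds were applied directly into the paddy water, which was held at that depth throughout. After 13 to 15 d in a greenhouse, injury was rated visually against untreated controls on a 0–100 scale (0 no effect, 100 complete control).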

[8] = test system: ducksalad (Heteranthera limosa); assay: Test B flooded paddy test; settings: 250 g ai/ha, Flood; visual rating on scale of 0 to 100 where 0 is no effect and 100 is complete control; 13 to 15 d after treatment
Summary of the method: as §3

[9] = test system: sedge, umbrella (small-flower umbrella sedge, Cyperus difformis); assay: Test B flooded paddy test; settings: 250 g ai/ha, Flood; visual rating on scale of 0 to 100 where 0 is no effect and 100 is complete control; 13 to 15 d after treatment
Summary of the method: as §3

rice (Oryza sativa) = assay: Test B flooded paddy test; settings: 250 g ai/ha, Flood; visual rating on scale of 0 to 100 where 0 is no effect and 100 is complete control; 13 to 15 d after treatment
Summary of the method: as §3

[10] = test system: blackgrass (Alopecurus myosuroides); assay: Test A greenhouse herbicide test, postemergence
Summary of the method: (§4)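 Plants grown in loam soil/sand blend pots were treated postemergence at 2 to 10 cm height, one- to two-leaf stage, with formulated test chemicals. After approximately 10 d in a greenhouse, injury was rated visually against untreated controls on a 0 to 100 scale (0 no effect, 100 complete control).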

[11] = test system: galium (catchweed bedstraw, Galium aparine); assay: Test A greenhouse herbicide test, postemergence
Summary of the method: as §4

[12] = Postemergence, 125 g ai/ha, 0 to 100 scale where 0 is no effect and 100 is complete control
[13] = Preemergence, 125 g ai/ha, 0 to 100 scale where 0 is no effect and 100 is complete control
[14] = Preemergence, 500 g ai/ha, 0 to 100 scale where 0 is no effect and 100 is complete control
[15] = Postemergence, 500 g ai/ha, visual rating after approx. 10 d, 0 to 100 scale (0 no effect, 100 complete control)
[16] = 125 g ai/ha, 0 to 100 scale where 0 is no effect and 100 is complete control
[17] = 500 g ai/ha, visual rating after approx. 10 d, 0 to 100 scale (0 no effect, 100 complete control)

Structure (SMILES) | Plant response rating, Barnyardgrass [1, 12] | Barnyardgrass plant response rating [1, 13] | Plant response rating, Barnyardgrass [1, 14] | Plant response rating, Ragweed [2, 12] | Plant response rating, Ragweed [2, 15] | Ragweed plant response rating [2, 13] | Plant response rating, Ragweed [2, 14] | Plant response rating, Corn (corn (Zea mays); [16]) | Plant response rating, Corn (corn (Zea mays); [17]) | Plant response rating, Kochia (kochia (Kochia scoparia); [12]) | Plant response rating, Kochia (kochia (Kochia scoparia); [15]) | Kochia plant response rating (kochia (Kochia scoparia); [13]) | Plant response rating, Kochia (kochia (Kochia scoparia); [14]) | Plant response rating, Ryegrass, Italian [3, 12] | Plant response rating, Ryegrass, Italian [3, 15] | Ryegrass, Italian plant response rating [3, 13] | Plant response rating, Ryegrass, Italian [3, 14] | Plant response rating, Foxtail, Giant [4, 12] | Plant response rating, Foxtail, Giant [4, 15] | Foxtail, Giant plant response rating [4, 13] | also measured
CCc1ccc2ccc(C)cc2c1-c1c(O)c(C)nn(C)c1=O [Compound 103] | 40 | 40 | 90 | 100 | 100 | 90 | 100 | 20 | 60 | 50 | 90 | 20 | 40 | 100 | 100 | 90 | 100 | 90 | 90 | 80 | Barnyardgrass plant response rating ([1]; Postemergence, 500 g ai/ha, 0 to 100 scale, 0 is no effect, 100 is complete control): 90; Plant response rating, Foxtail, Giant [4, 14]: 100; Plant response rating, Wheat [5, 16]: 0; Plant response rating, Wheat [5, 17]: 20; Plant response rating, Pigweed [6, 12]: 90; Plant response rating, Pigweed [6, 15]: 100; Pigweed plant response rating [6, 13]: 100; Plant response rating, Pigweed [6, 14]: 100; Plant response rating, Barnyardgrass [7]: 30; Plant response rating, Ducksalad [8]: 0; Plant response rating, Sedge, Umbrella [9]: 50; Plant response rating, Rice (rice (Oryza sativa)): 0; Plant response rating, Blackgrass [10, 16]: 70; Blackgrass plant response rating ([10]; 500 g ai/ha, 0 to 100 scale, 0 is no effect, 100 is complete control): 90; Plant response rating, Galium [11, 16]: 100; Plant response rating, Galium [11, 17]: 100
CCc1nn(C)c(=O)c(-c2c(C)oc3ccccc23)c1O [Compound 117] | 0 | 0 | 50 | 0 | 0 | 0 | 0 | 0 | 0 | 0 | 10 | 0 | 0 | 0 | 0 | 0 | 0 | 0 | 20 | 0 | Plant response rating, Barnyardgrass [1, 15]: 40; Plant response rating, Foxtail, Giant [4, 14]: 30; Plant response rating, Wheat [5, 16]: 0; Plant response rating, Wheat [5, 17]: 0; Plant response rating, Pigweed [6, 12]: 0; Plant response rating, Pigweed [6, 15]: 20; Pigweed plant response rating [6, 13]: 0; Plant response rating, Pigweed [6, 14]: 30; Plant response rating, Barnyardgrass [7]: 0; Plant response rating, Ducksalad [8]: 0; Plant response rating, Sedge, Umbrella [9]: 0; Plant response rating, Rice (rice (Oryza sativa)): 0; Plant response rating, Blackgrass [10, 16]: 0; Plant response rating, Blackgrass [10, 17]: 0; Plant response rating, Galium [11, 16]: 0; Plant response rating, Galium [11, 17]: 0
CC(=O)Oc1ccc2cccc(-c3c(OC(C)=O)c(C)nn(C)c3=O)c2c1 [Compound 124] | 20 | 0 | 0 | 0 | 0 | 0 | 0 | 0 | 0 | 0 | 0 | 0 | 20 | 0 | 0 | 0 | 30 | 0 | 0 | 0 | Plant response rating, Barnyardgrass [1, 15]: 30; Plant response rating, Foxtail, Giant [4, 14]: 0; Plant response rating, Wheat [5, 16]: 0; Plant response rating, Wheat [5, 17]: 0; Plant response rating, Pigweed [6, 12]: 0; Plant response rating, Pigweed [6, 15]: 0; Pigweed plant response rating [6, 13]: 0; Plant response rating, Pigweed [6, 14]: 0; Plant response rating, Barnyardgrass [7]: 0; Plant response rating, Ducksalad [8]: 0; Plant response rating, Sedge, Umbrella [9]: 0; Plant response rating, Rice (rice (Oryza sativa)): 0; Plant response rating, Blackgrass [10, 16]: 0; Plant response rating, Blackgrass [10, 17]: 0; Plant response rating, Galium [11, 16]: 0; Plant response rating, Galium [11, 17]: 30
